pIC50: −log10 of the molar value.
Biological target: Beta-secretase 1 (Homo sapiens, UniProt P56817)
Test: Fluorescence Resonance Energy Transfer (FRET) Assay
Description: BACE1 inhibitory evaluation was carried out using a Fluorescence Resonance Energy Transfer (FRET) assay kit supplied by PanVera (kit P2985, Madison, WI, USA).

Chain of Beta-secretase 1 (P56817 whole entry): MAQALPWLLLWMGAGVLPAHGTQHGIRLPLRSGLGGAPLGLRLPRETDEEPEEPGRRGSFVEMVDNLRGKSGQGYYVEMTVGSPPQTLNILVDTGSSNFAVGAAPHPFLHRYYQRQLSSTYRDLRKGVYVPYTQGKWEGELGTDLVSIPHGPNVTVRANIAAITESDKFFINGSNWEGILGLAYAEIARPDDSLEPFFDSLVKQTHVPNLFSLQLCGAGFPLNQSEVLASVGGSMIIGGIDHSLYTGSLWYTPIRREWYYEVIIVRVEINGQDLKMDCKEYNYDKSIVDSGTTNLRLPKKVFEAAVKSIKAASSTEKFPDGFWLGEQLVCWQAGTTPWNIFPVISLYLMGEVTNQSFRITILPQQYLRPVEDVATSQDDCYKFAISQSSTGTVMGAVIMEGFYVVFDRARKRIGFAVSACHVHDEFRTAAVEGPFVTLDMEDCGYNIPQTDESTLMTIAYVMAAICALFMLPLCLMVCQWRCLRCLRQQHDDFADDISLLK

Row | SMILES | pIC50
1 | CCCCOc1cccc(-c2cc(C#N)cc(Oc3ccccc3F)c2)c1 [Benzonitrile, 5d] | 5.03
2 | CCCCOc1cccc(-c2cc(Oc3ccccc3)cc(C(=N)N)c2)c1 [Benzimidamide, 6b] | 5.15
3 | CCCOc1cccc(-c2cc(C#N)cc(Oc3ccccc3F)c2)c1 [Benzonitrile, 5c] | 4.10
4 | CCCOc1cccc(-c2cc(Oc3ccccc3F)cc(C(=N)N)c2)c1 [Benzimidamide, 6c] | 5.36
5 | CCCCOc1cccc(-c2cc(Oc3ccccc3F)cc(C(=N)N)c2)c1 [Benzimidamide, 6d] | 5.47
6 | CCCOc1cccc(-c2cc(Oc3ccccc3)cc(C(=N)N)c2)c1 [Benzimidamide, 6a] | 5.10

— BindingDB's records for doi:10.1111/cbdd.12016 (Peking University Health Science Center, 2012)
